Entries after “also recorded” stand apart in the source; their conditions may differ. Read-outs that look alike come from different tables or passages of the source.
Tests used:
Type in all cases: cell-based
[1] = tested on: Saos-2 osteosarcoma cells expressing GFP-LC3; assay: Autophagy response by punctate localization of GFP-LC3 to autophagic vacuoles, fluorescence microscopy; conditions: for Activate Autophagy Response: Table 1; for Induction of autophagy: Table 2; for Enhancement of autophagy (GFP-LC3 at autophagic vacuoles) / Stimulation of autophagy compared with amino acid and serum starved cells (FIG. 2G): enriched (Fed) medium; for Stimulation of autophagy compared with amino acid and serum starved cells (FIG. 2G): 100 μM
Protocol: FIGS. 2A-2G. Activation of autophagy by Bcl-XL targeting compounds. The positions of C2 in Site 1 (FIG. 2A), C5 in Site 1 (FIG. 2B), and C8 in Site 2 (FIG. 2C) of Bcl-xl are shown by in silico molecular docking. Saos-2 osteosarcoma cells expressing GFP-LC3 were incubated in enriched (Fed) medium in the presence of C2 (FIG. 2D), C5 (FIG. 2E) and C8 (FIG. 2F) Bcl-targeted compounds. GFP-LC3 is found diffuse throughout the cytosol and nucleus when autophagy is suppressed. Ongoing autophagy can be visualized by the presence of GFP-LC3 at autophagic vacuoles (AVs) that appear as dots (arrows). […] In FIG. 2E, Saos-2 osteosarcoma cells expressing GFP-LC3 were incubated in enriched (Fed) medium in the absence and presence of Bcl-targeted compounds or in medium lacking amino acids and serum (Starved).
FIG. 4A-4F. Activation of autophagy by Bcl-targeted compounds. The localization of GFP-LC3 to autophagic vacuoles was enhanced by […] Bcl-targeted compounds in Saos-2 osteosarcoma cells. The autophagy response in fed Saos2 cells was measured in the absence and presence of anti-Bcl compounds by visualizing the punctate localization of GFP-LC3 (FIGS. 4A-4C) and RFP-GFP-LC3 (FIGS. 4D-4F) to autophagic vacuoles. In untreated fed cells, the GFP-LC3 is localized uniformly throughout the cell. […] Autophagy in cells expressing RFP-GFP-LC3 (FIGS. 4D-4F) was activated with compound B2-1. Structures containing RFP (red, FIG. 4D) and GFP (green, FIG. 4E) are autophagosomes (arrow), while RFP (red, FIG. 4D) structures are autolysosomes (arrowhead).
(§1) FIGS. 5A-5C. Characterization of proBeclin 1 compounds. Upon ranking 100 NCl compounds by in silico docking to Bcl-xl, the autophagy responses were evaluated in fed Saos-2 cells expressing GFP-LC3 (FIG. 5A). […] Cells were maintained in nutrient-rich medium in the absence and presence of Bcl-targeted compounds for 4 hr. The cells were then solubilized, Beclin 1 complex immunoprecipitated, and the Beclin 1 hound proteins identified by Western blotting (FIG. 5C). The IgG-LC is the immunoglobin light chain of the anti-Beclin 1 antibody that was used to immunoprecipitate the complex. The absence of Bcl-xl is indicative of an inhibition of Beclin 1 binding.
This was done in Saos-2 osteosarcoma cells stably expressing the autophagosome marker, GFP-LC3. In fed cells not undergoing autophagy GFP-LC3 is a soluble protein found throughout the cytosol. In amino acid and serum starved cells, autophagy is activated and GFP-LC3 becomes associated with autophagic vacuoles that can be visualize by fluorescence microscopy.
(§2) When autophagy is suppressed, GFP-LC3 distributes uniformly throughout the cellular cytoplasm (FIG. 4A). Autophagy response can be observed by visualizing the punctuate pattern of GFP-LC3 indicative of the presence of autophagic vacuoles. We can also use tandem-labeled LC3, RFP-GFP-LC3 to better assess the dynamics of the autophagy response by visualizing both autophagosomes and autolysosomes (FIG. 4D-4F). […] To further substantiate that the accumulation of GFP-LC3 structures is not due to a blockage of basal autophagy but the positive effects of the compounds on the autophagy response, the autophagy response is validated by quantitative protein turnover measures using radiolabeled amino acids (FIG. 5B). Finally, we determine whether the compound interferes with Beclin 1 binding to Bcl-xl (FIG. 5C) and Bcl-2 as we would suspect if the compound acts through the intended novel mechanism of action.

protein degradation = assay: Protein degradation by pulse-chase methods using 14C-valine; conditions: for Rates of protein degradation (FIG. 5B): 14C-valine pulse-chase, compared to a control compound, n=6; for Stimulate Protein Degradation: Table 1; for Proteolysis, bar coding of FIG. 5A: black bar stimulated, striped bar inhibited
Protocol: as §1, §2

Beclin 1/Bcl binding = Beclin 1/Bcl binding by immunoprecipitation with anti-Beclin 1 antibodies and Western blotting; conditions: for Inhibit Beclin 1 Binding: Table 1; for Beclin 1 binding to Bcl-xl / Bcl proteins: nutrient-rich medium, 4 hr
Source text: FIGS. 5A-5C. Characterization of proBeclin 1 compounds. […] Cells were maintained in nutrient-rich medium in the absence and presence of Bcl-targeted compounds for 4 hr. The cells were then solubilized, Beclin 1 complex immunoprecipitated, and the Beclin 1 hound proteins identified by Western blotting (FIG. 5C). The IgG-LC is the immunoglobin light chain of the anti-Beclin 1 antibody that was used to immunoprecipitate the complex.
Autophagy response can be observed by visualizing the punctuate pattern of GFP-LC3 indicative of the presence of autophagic vacuoles. We can also use tandem-labeled LC3, RFP-GFP-LC3 to better assess the dynamics of the autophagy response by visualizing both autophagosomes and autolysosomes (FIG. 4D-4F). […] Finally, we determine whether the compound interferes with Beclin 1 binding to Bcl-xl (FIG. 5C) and Bcl-2 as we would suspect if the compound acts through the intended novel mechanism of action.

NeuT cells = tested on: NeuT cells
Protocol: FIGS. 3A-3E. Effects of Bcl-XL targeted small compounds on the autophagy response and cell survival in NeuT cells. The positions of C4 in Site 1 (FIG. 3A), and C9 in Site 2 (FIG. 3B) of Bcl-xl are shown by in silico molecular docking. NeuT (Her2-positive breast cancer cell line) cells expressing GFP-LC3 were incubated in enriched (Fed) medium in the presence of C4 (FIG. 3C) and C9 (FIG. 3D) Bcl-targeted compounds. GFP-LC3 is found on autophagic vacuole that appear as dots (arrows). In FIG. 3E, the survival of NeuT cells was quantified after 20h of treatment with 0.1-1000 μM of Site 1 (C2 and C4) and Site 2 (C7 and C9) compounds.
Cell survival is suppressed by Bcl2-targeted compounds: Next, we examined the effects of the Bcl-xl targeted compounds C2, C4, C7, and C9 on autophagy and cell death in Her2/Neu-positive NeuT breast carcinoma cells (FIGS. 3A-E).

Structure (SMILES)	Activate Autophagy Response [1]	Induction of autophagy [1]	Enhancement of autophagy (GFP-LC3 at autophagic vacuoles) [1]	Stimulate Protein Degradation (protein degradation)	Inhibit Beclin 1 Binding (Beclin 1/Bcl binding)	further results
O=C(O)CCn1c(=O)[nH]c(=O)n(CCC(=O)O)c1=O [NSC11693]	Yes	NSC 11693 Induces autophagy; not tested for the induction of cell death				
CN(C)CCNNC1CCCN(C)C1 (stereo not drawn) [NSC21689]	Yes		activate autophagy	Yes	No	Rates of protein degradation (FIG. 5B) (protein degradation): activate; Beclin 1 binding to Bcl-xl / Bcl proteins (Beclin 1/Bcl binding; listed as Bx-16): did not; also recorded: do not appear to affect Beclin 1 binding; also recorded: does not inhibit Beclin 1 binding as well as Bx-8
C1CC2NCCC3NCCC(N1)N32 (stereo not drawn) [NSC81462, Dodecahydro-1,4,7,9b-tetraazaphenalene]	Yes		stimulate autophagy	Yes	Yes	Rates of protein degradation (FIG. 5B) (protein degradation; listed as Bx-8): elevated; also recorded: stimulate; Proteolysis, bar coding of FIG. 5A (protein degradation): stimulated proteolysis; Beclin 1 binding to Bcl-xl / Bcl proteins (Beclin 1/Bcl binding; listed as Bx-8): inhibited Beclin 1 binding; also recorded: inhibiting Beclin 1 binding
O=C1/C(=N\Nc2cc(Cl)ccc2O)C(S(=O)(=O)O)=Cc2cc(S(=O)(=O)O)cc(O)c21 [NSC100234, (3E)-3-[(5-chloro-2-hydroxyphenyl)hydrazinyleidene]-5-hydroxy-4-oxonapthalene-2,7-disulfonic acid]	Yes		stimulate autophagy	Yes	Yes	Rates of protein degradation (FIG. 5B) (protein degradation): stimulate; Beclin 1 binding to Bcl-xl / Bcl proteins (Beclin 1/Bcl binding): inhibiting Beclin 1 binding
O=C(c1ccc(Cl)cc1)C(C(c1ccc([N+](=O)[O-])cc1)N1CCCCC1)N1CCCCC1 (stereo not drawn) [NSC150193, 1-(4-chlorophenyl)-3-(4-nitrophenyl)-2,3-di(piperidin-1-yl)propan-1-one]	Yes	NSC 150193 Induces autophagy; not tested for the induction of cell death	stimulate autophagy	Yes	Yes	Rates of protein degradation (FIG. 5B) (protein degradation; listed as B2-7): elevated; also recorded: stimulate; Proteolysis, bar coding of FIG. 5A (protein degradation): stimulated proteolysis; Beclin 1 binding to Bcl-xl / Bcl proteins (Beclin 1/Bcl binding): inhibiting Beclin 1 binding
Clc1cc(Cl)c(C[N+]23CN4CN(CN(C4)C2)C3)cc1Cl.[Cl-] [NSC155877, 3,5,7-Triaza-1-axoniaadamantane, 1-(2,4,5-trichlorobenzyl)-, chloride]	Yes				No	
OC(CCl)CN1CC[N+]2(CC1)CC[N+]1(CCN(CC(O)CCl)CC1)CC2.[Cl-].[Cl-] (stereo not drawn) [NSC166100, 3,12-Bis(3-chloro-2-hydroxypropyl)-3,12-diaza-6,9-diazoniadispiro[5.2.5.2]hexadecane dichloride]	Yes	Induces			No	Stimulation of autophagy compared with amino acid and serum starved cells (FIG. 2G) [1]: promote autophagy
CN(C)CC(CN1c2ccccc2Sc2ccccc21)N(C)C (stereo not drawn) [NSC169468]	Yes	NSC 169468 Induces autophagy; not tested for the induction of cell death				Stimulation of autophagy compared with amino acid and serum starved cells (FIG. 2G) [1]: stimulated autophagy to levels seen in amino acid and serum starved cells
CC1CC(C)(C)NCCNC(C)CC(C)(C)NCCN1 (stereo not drawn) [NSC175445, 5,5,7,12,12,14-hexamethyl-1,4,8,11-tetrazacyclotetradecane]	Yes	NSC 175445 Induces autophagy; not tested for the induction of cell death	stimulate autophagy		Yes	Proteolysis, bar coding of FIG. 5A (protein degradation): stimulated proteolysis; Beclin 1 binding to Bcl-xl / Bcl proteins (Beclin 1/Bcl binding; listed as B2-11): inhibited Beclin 1 binding; also recorded: interfere with Beclin 1 binding
CC(=O)C1=C(O)C2(C)c3c(O)c(C)c(O)c(C(C)=O)c3OC2CC1=O (stereo not drawn) [NSC280057]	Yes	Induces autophagy			No	Stimulation of autophagy compared with amino acid and serum starved cells (FIG. 2G) ([1]; listed as C10): promote autophagy; also recorded: stimulated autophagy to levels seen in amino acid and serum starved cells; Induction of cell death (NeuT cells; Table 2, cells not given): causes cell death
CN1CCN(CCSC2Cc3cc(Cl)ccc3Sc3ccccc32)CC1 (stereo not drawn) [NSC635366]	Yes	Induces autophagy		No		Stimulation of autophagy compared with amino acid and serum starved cells (FIG. 2G) ([1]; listed as C8): promote autophagy; also recorded: stimulated autophagy to levels seen in amino acid and serum starved cells; Enhancement of autophagy (GFP-LC3 at autophagic vacuoles) ([1]; listed as Bx19): promote the accumulation of autophagic vacuoles; Enhancement of autophagy (GFP-LC3 at autophagic vacuoles) ([1]; listed as C8): enhanced autophagy; Induction of cell death (NeuT cells): causes cell death; Rates of protein degradation (FIG. 5B) (protein degradation): inhibit protein degradation
Cl.NC(CSSCC(N)Cc1ccccc1)Cc1ccccc1 (stereo not drawn) [NSC656252]	Yes	Induces autophagy				Induction of cell death (NeuT cells; Table 2, cells not given): causes cell death

Reference: patent US20120141491A1, “METHODS AND COMPOSITIONS FOR THE TREATMENT OF CANCERS AND PATHOGENIC INFECTIONS” (priority 2009, published 2012)
